Numbers after ± are expanded uncertainties.
Legend:
[1] = 101.3 kPa, Liquid, Vibrating tube method
[2] = mn = molality of the nth substance listed, in mol/kg; conditions: 101.3 kPa, Liquid, Vibrating tube method, m2 = 0

Structure (SMILES) | mass density ([1]; 278.15 K) [kg/m3] | mass density ([1]; 283.15 K) [kg/m3] | mass density ([1]; 308.15 K) [kg/m3] | mass density ([1]; 328.15 K) [kg/m3] | mass density ([1]; 333.15 K) [kg/m3] | mass density ([1]; 338.15 K) [kg/m3] | mass density ([1]; 343.15 K) [kg/m3] | mass density ([2]; 278.15 K) [kg/m3] | mass density ([2]; 283.15 K) [kg/m3] | mass density ([2]; 308.15 K) [kg/m3] | mass density ([2]; 328.15 K) [kg/m3] | mass density ([2]; 333.15 K) [kg/m3] | mass density ([2]; 338.15 K) [kg/m3] | mass density ([2]; 343.15 K) [kg/m3]
O [water] | 999.99 ± 0.4 | 999.73 ± 0.41 | 994.06 ± 0.41 | 985.73 ± 0.4 | 983.24 ± 0.4 | 980.59 ± 0.4 | 977.81 ± 0.4 |  |  |  |  |  |  | 
O [water] + O=C(O)CC(=O)O |  |  |  |  |  |  |  | 999.99 ± 0.4 | 999.73 ± 0.41 | 994.06 ± 0.41 | 985.73 ± 0.4 | 983.24 ± 0.4 | 980.59 ± 0.4 | 977.81 ± 0.4

— the NIST ThermoML archive (doi:10.1016/j.jct.2016.06.023)
